Laboratory results from paper PMC9024338, “Bruceine H Mediates EGFR-TKI Drug Persistence in NSCLC by Notch3-Dependent β-Catenin Activating FOXO3a Signaling” (Frontiers in Oncology, 2022).
pIC50: −log10 of the molar value. Like-named read-outs stand apart in the source and are kept apart here.

Experiments:
LO2 cells = test: Toxicity to normal human cell line LO2 (Figure S1); assay type: cell-based
Protocol: (§1) Figure S1. The toxicity of Bruceine H (BH) and Bruceine D (BD) to 16HBE (A) and LO2 (B) cells was evaluated.

PC-9/GR cells = test: Apoptosis by flow cytometry (Annexin V-FITC/PI), PC-9/GR; assay type: cell-based, human; settings: low-dose BH (4, 8 μM), gefitinib 25 μM, alone or combined
Protocol: (§2) After being digested with trypsin without EDTA, the cells were washed gently with culture medium and twice with cold PBS. The pellet was resuspended in 400 μl of 1× binding buffer, the resuspended cells were transferred to flow tubes, then Annexin V-FITC (5 μl) and propidium iodide (10 μl) were added, and the mixture was incubated for 15 min at room temperature in the dark. The percentage of apoptotic cells was determined by flow cytometry (Backman, CA, USA) and FlowJo V10 software.

A549 cells [1] = test: Wound healing assay for migration; assay type: cell-based, human; settings: 4 μM, 48 h
Protocol: A549 cells (3 × 10^5/ml/well) were seeded into a six-well plate. After overnight culture, when the fusion rate reached 95%–100%, the sterile pipette tip was perpendicular to the plate plane, and a straight wound was drawn on the cell monolayer. Following treatment with BD or BH, the migration of the cells was examined under a microscope (×4, Nikon, Tokyo, Japan), and pictures were obtained at 0 and 48 h. The computation of the cell migration formula is as follows: relative migration area (%) = (0 h wound area – 48 h wound area)/0 h wound area × 100%.

A549 xenografts = A549 xenografts in BALB/c nude mice; assay type: in vivo
Protocol: The total proteins of cells and tissues were extracted with RIPA cleavage buffer containing a protease inhibitor cocktail, phenylmethylsulfonyl fluoride (PMSF, Solarbio). The cell lysates (20 μg) were run on SDS-polyacrylamide gel (6%–10%) and transferred to the polyvinylidene fluoride membrane (PVDF, Millipore, MA, USA) by electrophoresis. The membrane was blocked with 5% skim milk in TBST for 2 h, incubated overnight with the corresponding primary antibody at 4°C, and then incubated with the corresponding secondary antibody at room temperature for 2 h. The reaction products were detected by chemiluminescence by ECL Western Blotting Detection System. Finally, quantitative analysis was carried out with ImageJ software.
The heart, liver, spleen, lung, kidney, and tumor tissues were embedded in paraffin, and the sections (4 µm) were stained with hematoxylin–eosin (H&E, Solarbio) and then examined and analyzed under a Leica DM6B microscope (Leica Microsystems, Wetzlar, Germany).
The tumor section was dewaxed and repaired with antigen, 3% H2O2 was added, and then the section was sealed with 10% goat serum at room temperature for 30 min. The first antibody against Ki-67 and Notch3 (CST) was incubated overnight at 4°C, and the second antibody was incubated at room temperature for 30 min. After DAB staining, the sections were counterstained with hematoxylin for 2 min and then observed and analyzed under a Leica microscope.
The animal procedures were approved by the Ethics Committee of the Experimental Animal Center of Jiangxi University of Chinese Medicine (Nanchang, China, SCXK 2016-0006) and conducted following the Guide for the Care and Use of Laboratory Animals. Four-week-old male BALB/c nude mice (weighing 16–17 g, SPF grade) were obtained from Shanghai Shrek Experimental Animal Co., Ltd. (Shanghai, China). The xenotransplantation model was established by subcutaneous injection of A549 or PC-9/GR cells in nude mice, which were collected with PBS and mixed with an equal volume of Matrigel at a final concentration of 1 × 10^7/ml. […] Measurements of tumor size and body weight were conducted every 2 days with a vernier caliper and an electronic balance. Nodule growth was quantified by using the following formula: tumor volume (mm^3) = (short-diameter)^2 × large-diameter × π/6.

PC-9 cells [2] = test: Apoptosis by flow cytometry (Annexin V-FITC/PI), PC-9; assay type: cell-based, human; settings: PC-9, 48 h, various concentrations, relative to control
Protocol: as §2

A549 cells [3] = test: Apoptosis by flow cytometry (Annexin V-FITC/PI), A549; assay type: cell-based, human; settings: A549, 48 h, various concentrations, relative to control
Protocol: as §2

16HBE cells = test: Toxicity to normal human cell line 16HBE (Figure S1); assay type: cell-based
Protocol: as §1

A549 cells [4] = test: cells; assay type: cell-based, human; settings: Homo sapiens
Protocol: (§3) The human NSCLC cell lines (A549, PC-9, and PC-9/GR) and other cell lines (16HBE and LO2) were purchased from the American Type Culture Collection (ATCC, Manassas, VA, USA). […] All cell lines were cultivated at 37°C under 5% CO2.
(§4) The Cell Counting Kit-8 assays (Beyotime, Shanghai, China) were performed to assess cell viability. […] Microplate readers (Infinite F500, Tecan, Mannedorf, Switzerland) were used to measure the absorbance (A) at 450 nm. All samples were assessed in triplicate.

PC-9 cells [5] = test: cells; assay type: cell-based, human; settings: Homo sapiens
Protocol: as §3, §4

A549 cells [6] = test: Transwell migration and Matrigel invasion assays; assay type: cell-based, human; settings: dose-dependent, 12 h treatment
Protocol: The Transwell insert in a 24-well plate (8 μm, Corning, NY, USA) was taken out, and a 600-μl medium containing 10% FBS was added to the bottom chamber. The A549 cells were resuspended with 10% FBS culture medium, and the diluted cell suspension (3 × 10^5/300 μl) was cultured in the top chamber and then incubated with or without Matrigel (BD BioCoat). After 12 h, the medium in the top chamber was changed to RPMI-1640 without FBS, and BD or BH with different concentrations was added ([31]). After an additional 12 h, the cells that migrated or invaded the bottom side of the polycarbonate film were fixed with methanol for 30 min and then stained for 15 min with 0.1% crystal violet (Solarbio), after which their number was assessed under a microscope (×4, Nikon).

CC1=CC(=O)[C@@H](O)[C@]2(C)[C@H]3[C@@H](O)[C@H](O)[C@@]4(CO)OC[C@@]35[C@@H](C[C@@H]12)OC(=O)[C@H](O)[C@]54O [BH, Bruceine H]
toxicity to LO2 cells (LO2 cells): no apparent toxicity
apoptosis of PC-9/GR cells (PC-9/GR cells): little effects
migration of A549 cells (wound healing) (A549 cells [1]): impaired
growth of A549 xenografts (A549 xenografts; 2.5 or 5 mg/kg intragastric, 16 days): significantly inhibited
organ indexes of heart, kidney, liver, lung, spleen (A549 xenografts; A549 xenograft mice): no significant changes
body weight (A549 xenografts; A549 xenograft mice, 2.5 and 5 mg/kg): without significant changes
Notch3 expression in tumor xenografts (A549 xenografts; A549 xenografts, IHC, vs model group): decreased in a dose-dependent manner
number of Ki-67-positive cells in cancer tissues (A549 xenografts; A549 xenografts, IHC, vs vehicle): decreased
Notch3, β-catenin, and Bcl-2 protein levels in tumor tissues (A549 xenografts; A549 xenografts, Western blot): decreased
expression of FOXO3a in tumor tissues (A549 xenografts; A549 xenografts, Western blot): increased
late apoptotic rate (PC-9 cells [2]): increased
early apoptosis rate (A549 cells [3]): increased
toxicity to 16HBE cells (16HBE cells): no apparent toxicity
pIC50 (A549 cells [4]; A549, 24 h, Figure 2A, read-out: IC50 (24h)): 4.35
pIC50 (A549 cells [4]; A549, 48 h, read-out: IC50 (48 h)): 4.59
pIC50 (PC-9 cells [5]; PC-9, 24 h, Figure 2A, read-out: IC50 (24h)): 4.26
pIC50 (PC-9 cells [5]; PC-9, 48 h, read-out: IC50): 4.90
Transwell migration and invasion of A549 (A549 cells [6]): significant anti-invasive and antimigratory actions
